This note sets out measurements from ChEMBL document CHEMBL3217752, “Small molecules targeting phosphoinositide 3-kinases” (Medchemcomm, 2012).

Data set [1] concerns the target T1, Phosphatidylinositol 4,5-bisphosphate 3-kinase catalytic subunit gamma isoform (Homo sapiens, UniProt P48736).
Data set [2] concerns the target Serine/threonine-protein kinase mTOR (Homo sapiens, UniProt P42345).
Data set [3] deals with T2, Phosphatidylinositol 4,5-bisphosphate 3-kinase catalytic subunit alpha isoform (Homo sapiens, UniProt P42336). It is filed as cell-based.
The target of data set [4] is T3, Phosphatidylinositol 4,5-bisphosphate 3-kinase catalytic subunit beta isoform (Homo sapiens, UniProt P42338). In kind it is cell-based.
In data set [5] the target is T3, Phosphatidylinositol 4,5-bisphosphate 3-kinase catalytic subunit beta isoform.
The target in data set [6] is T2, Phosphatidylinositol 4,5-bisphosphate 3-kinase catalytic subunit alpha isoform.
The target of data set [7] is T1, Phosphatidylinositol 4,5-bisphosphate 3-kinase catalytic subunit gamma isoform. The source holds these as a separate data set.
The target in data set [8] is T4, Phosphatidylinositol 4,5-bisphosphate 3-kinase catalytic subunit delta isoform (Homo sapiens, UniProt O00329).
T4 sequence (O00329 whole entry): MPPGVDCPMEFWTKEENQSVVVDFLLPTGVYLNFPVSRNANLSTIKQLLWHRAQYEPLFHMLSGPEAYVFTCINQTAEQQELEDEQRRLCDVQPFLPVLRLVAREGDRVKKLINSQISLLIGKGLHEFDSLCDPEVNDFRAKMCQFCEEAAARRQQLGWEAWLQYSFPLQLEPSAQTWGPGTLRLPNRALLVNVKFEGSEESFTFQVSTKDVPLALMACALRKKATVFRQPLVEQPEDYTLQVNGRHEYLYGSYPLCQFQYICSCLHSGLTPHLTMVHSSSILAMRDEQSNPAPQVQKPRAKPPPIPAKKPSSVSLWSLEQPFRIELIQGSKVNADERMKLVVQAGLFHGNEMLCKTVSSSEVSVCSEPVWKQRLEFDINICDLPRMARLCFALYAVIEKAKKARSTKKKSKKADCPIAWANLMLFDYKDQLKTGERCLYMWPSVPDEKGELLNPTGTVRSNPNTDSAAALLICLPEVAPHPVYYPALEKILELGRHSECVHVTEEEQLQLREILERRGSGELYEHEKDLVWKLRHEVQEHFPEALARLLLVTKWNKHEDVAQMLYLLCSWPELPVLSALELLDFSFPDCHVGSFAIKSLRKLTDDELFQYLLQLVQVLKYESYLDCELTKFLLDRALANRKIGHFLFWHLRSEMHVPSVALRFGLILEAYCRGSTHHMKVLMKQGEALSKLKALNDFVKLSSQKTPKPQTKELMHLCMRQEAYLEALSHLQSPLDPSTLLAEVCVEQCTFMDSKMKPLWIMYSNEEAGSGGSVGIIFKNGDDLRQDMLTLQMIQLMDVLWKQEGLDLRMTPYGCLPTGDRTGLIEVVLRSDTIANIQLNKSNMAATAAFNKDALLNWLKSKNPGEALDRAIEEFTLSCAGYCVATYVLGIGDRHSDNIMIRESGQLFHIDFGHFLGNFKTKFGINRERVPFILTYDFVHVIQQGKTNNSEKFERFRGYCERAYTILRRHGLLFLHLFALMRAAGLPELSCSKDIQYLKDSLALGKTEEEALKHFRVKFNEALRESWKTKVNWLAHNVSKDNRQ

The target in data set [9] is DNA-dependent protein kinase catalytic subunit (Homo sapiens, UniProt P78527).
Data set [10] deals with mTORC1 (Homo sapiens, UniProt P42345). It is filed as protein-complex assay.
Data set [11] is described as follows: cells. It is filed as cell-based. The conditions noted are these: Homo sapiens.
The nature of data set [12]: clinical. The conditions noted are these: human, in vivo.

One may read the IC50 as the concentration at which inhibition is half-maximal. As a reminder, the half-life is the time needed for the level to fall by half in the phase considered. Lower therefore signals fast loss.

Molecules are shown by their SMILES. Some results are limits rather than exact numbers.

T3 sequence (P42338 whole entry, canonical isoform): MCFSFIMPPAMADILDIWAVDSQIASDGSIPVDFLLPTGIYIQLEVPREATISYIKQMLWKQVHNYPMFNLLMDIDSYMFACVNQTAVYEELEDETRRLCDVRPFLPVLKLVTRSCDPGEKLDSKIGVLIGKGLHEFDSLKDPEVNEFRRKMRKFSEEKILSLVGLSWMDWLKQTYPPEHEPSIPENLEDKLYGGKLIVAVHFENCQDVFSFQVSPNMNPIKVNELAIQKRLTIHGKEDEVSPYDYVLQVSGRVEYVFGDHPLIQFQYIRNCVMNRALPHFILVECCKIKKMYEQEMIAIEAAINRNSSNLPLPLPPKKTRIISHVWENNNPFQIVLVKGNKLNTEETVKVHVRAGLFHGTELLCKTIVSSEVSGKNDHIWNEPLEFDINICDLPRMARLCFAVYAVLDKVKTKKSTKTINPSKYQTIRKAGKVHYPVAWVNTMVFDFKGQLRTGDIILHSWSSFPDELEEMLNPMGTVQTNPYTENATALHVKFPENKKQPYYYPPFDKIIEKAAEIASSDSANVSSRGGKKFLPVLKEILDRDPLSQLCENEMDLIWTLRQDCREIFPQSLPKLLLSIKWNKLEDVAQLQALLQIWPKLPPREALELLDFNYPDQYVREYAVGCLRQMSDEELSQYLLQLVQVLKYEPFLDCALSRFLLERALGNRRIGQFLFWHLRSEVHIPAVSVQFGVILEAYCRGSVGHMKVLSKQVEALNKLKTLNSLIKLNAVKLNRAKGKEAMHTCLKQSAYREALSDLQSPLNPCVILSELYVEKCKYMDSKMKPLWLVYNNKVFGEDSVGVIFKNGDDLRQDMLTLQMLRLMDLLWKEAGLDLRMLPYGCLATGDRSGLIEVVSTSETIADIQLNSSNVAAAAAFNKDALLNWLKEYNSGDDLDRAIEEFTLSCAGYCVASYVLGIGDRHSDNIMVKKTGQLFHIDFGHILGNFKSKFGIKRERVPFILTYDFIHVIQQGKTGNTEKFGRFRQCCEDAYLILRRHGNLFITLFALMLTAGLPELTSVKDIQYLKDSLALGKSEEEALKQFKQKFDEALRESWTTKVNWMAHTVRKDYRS
T1 sequence (P48736 whole entry, canonical isoform): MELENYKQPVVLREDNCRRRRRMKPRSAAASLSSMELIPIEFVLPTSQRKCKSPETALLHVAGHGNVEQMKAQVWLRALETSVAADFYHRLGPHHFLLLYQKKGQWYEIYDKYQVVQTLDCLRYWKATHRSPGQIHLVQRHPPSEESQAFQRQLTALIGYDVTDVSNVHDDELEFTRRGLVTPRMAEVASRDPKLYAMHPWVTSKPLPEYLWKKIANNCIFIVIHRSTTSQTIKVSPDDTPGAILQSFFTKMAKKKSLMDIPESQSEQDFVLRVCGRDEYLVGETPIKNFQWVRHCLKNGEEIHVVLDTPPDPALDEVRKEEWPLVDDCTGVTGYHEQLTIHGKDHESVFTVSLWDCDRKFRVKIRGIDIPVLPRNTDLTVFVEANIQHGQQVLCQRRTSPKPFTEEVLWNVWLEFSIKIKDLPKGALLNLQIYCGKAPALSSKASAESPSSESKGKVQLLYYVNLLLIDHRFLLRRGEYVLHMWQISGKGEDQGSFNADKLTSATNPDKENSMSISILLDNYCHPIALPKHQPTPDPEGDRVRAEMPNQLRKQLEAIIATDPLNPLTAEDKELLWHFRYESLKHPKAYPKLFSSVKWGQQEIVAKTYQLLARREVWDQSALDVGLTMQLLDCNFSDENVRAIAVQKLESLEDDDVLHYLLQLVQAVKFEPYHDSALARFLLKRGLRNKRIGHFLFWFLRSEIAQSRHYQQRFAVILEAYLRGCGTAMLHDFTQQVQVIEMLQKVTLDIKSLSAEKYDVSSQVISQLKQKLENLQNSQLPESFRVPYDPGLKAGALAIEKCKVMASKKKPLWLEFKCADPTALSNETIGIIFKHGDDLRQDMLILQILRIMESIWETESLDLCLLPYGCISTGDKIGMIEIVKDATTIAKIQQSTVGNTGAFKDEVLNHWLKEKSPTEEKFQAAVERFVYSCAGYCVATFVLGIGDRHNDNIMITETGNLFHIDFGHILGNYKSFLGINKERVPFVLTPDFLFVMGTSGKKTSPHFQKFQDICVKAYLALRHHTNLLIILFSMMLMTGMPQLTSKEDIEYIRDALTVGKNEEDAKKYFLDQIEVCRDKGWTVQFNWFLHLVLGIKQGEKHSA
T2 sequence (P42336 whole entry, canonical isoform): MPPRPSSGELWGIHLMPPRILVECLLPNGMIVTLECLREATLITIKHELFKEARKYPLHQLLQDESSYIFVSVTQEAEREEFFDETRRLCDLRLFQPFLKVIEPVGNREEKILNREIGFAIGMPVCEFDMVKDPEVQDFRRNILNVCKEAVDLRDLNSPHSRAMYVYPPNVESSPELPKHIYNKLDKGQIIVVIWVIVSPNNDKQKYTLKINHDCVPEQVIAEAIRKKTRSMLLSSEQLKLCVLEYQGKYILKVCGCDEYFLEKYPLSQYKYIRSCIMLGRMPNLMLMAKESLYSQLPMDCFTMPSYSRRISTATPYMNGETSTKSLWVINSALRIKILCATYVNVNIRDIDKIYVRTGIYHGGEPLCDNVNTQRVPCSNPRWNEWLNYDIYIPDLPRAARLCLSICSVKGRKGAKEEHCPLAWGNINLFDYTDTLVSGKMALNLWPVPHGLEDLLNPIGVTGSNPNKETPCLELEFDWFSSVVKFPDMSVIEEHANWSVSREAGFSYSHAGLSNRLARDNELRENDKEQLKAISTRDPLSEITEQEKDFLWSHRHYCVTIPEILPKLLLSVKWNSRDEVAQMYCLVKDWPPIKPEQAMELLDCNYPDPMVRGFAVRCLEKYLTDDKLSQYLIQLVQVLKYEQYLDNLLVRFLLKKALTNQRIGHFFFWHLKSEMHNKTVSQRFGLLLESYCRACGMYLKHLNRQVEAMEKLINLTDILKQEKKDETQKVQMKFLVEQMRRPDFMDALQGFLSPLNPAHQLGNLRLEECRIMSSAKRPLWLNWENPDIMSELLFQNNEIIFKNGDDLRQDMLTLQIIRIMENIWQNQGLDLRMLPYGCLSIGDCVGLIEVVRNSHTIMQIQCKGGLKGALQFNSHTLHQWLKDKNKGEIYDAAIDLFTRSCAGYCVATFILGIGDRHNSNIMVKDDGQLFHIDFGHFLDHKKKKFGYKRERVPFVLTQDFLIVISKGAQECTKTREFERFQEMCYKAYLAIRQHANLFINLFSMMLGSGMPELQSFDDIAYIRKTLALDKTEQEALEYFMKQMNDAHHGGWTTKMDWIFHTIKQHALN

On to `CN1CCOc2cc(/C=C3\SC(=O)NC3=O)ccc21`, for which the half-maximal inhibitory concentration (IC50) in data set [1] is greater than 10 µM.
The compound `CC[C@H](Nc1ncnc2[nH]cnc12)c1nc2cccc(F)c2c(=O)n1-c1ccccc1` [IDELALISIB] displayed an IC50 in [2] greater than 10 µM.
Regarding `Oc1ccc(/C=C/c2cc(O)cc(O)c2)cc1` [RESVERATROL], the 50% inhibitory concentration (IC50) in data set [3] turned out to be 0.25 µM; in [4] it was 0.5 µM.
For `Cc1ccc(S(=O)(=O)Nc2nc3ccccc3nc2Nc2ccc3nsnc3c2)cc1`, in data set [5], the midpoint of inhibition, the IC50, lay at 0.383 µM.
Turning to `Cc1cc(NCc2ccccc2C)c2nc(N3CCOCC3)cc(=O)n2c1`, the IC50 in data set [5] was 0.11 µM.
For `N=C(N)NCCCC(NC(=O)CCC(=O)OC[N+]1(c2cc(=O)c3cccc(-c4ccccc4)c3o2)CCOCC1)C(=O)NCC(=O)NC(CC(=O)O)C(=O)NC(CO)C(=O)[O-]` (stereo not drawn), the IC50 in [5] amounted to 0.736 µM; in data set [6] it was 0.356 µM; in data set [7], 1.77 µM; in data set [8] it was 3.23 µM; in data set [2], 1.06 µM; in data set [9] it was 0.357 µM.
For the compound `Cc1cc(Oc2ccccc2C)c2[nH]c(N3CCOCC3)cc(=O)c2c1`, inhibition in [5] was half-maximal at 0.13 µM (IC50).
As to `COc1cc(Nc2nc3ccccc3nc2NS(=O)(=O)c2ccc(NC(=O)c3ccc(C)c(OC)c3)cc2)cc(OC)c1`, the IC50 in [9] was determined as 0.15 µM; in data set [10] it was 0.19 µM.
Compound `O=Cc1ccc(N2CCOCC2)cc1O` registered an IC50 in [5] of 2.8 µM. This counts as single-digit micromolar.
As to `COc1c(OCCCN2CCOCC2)ccc2c1N=C(NC(=O)c1cnc(N)nc1)N1CCN=C21` [COPANLISIB], in data set [11], the IC50 was less than 0.001 µM.
`COc1ccc(-c2ccc3ncc4c(c3c2)n(-c2ccc(N3CCNCC3)c(C(F)(F)F)c2)c(=O)n4C)cn1` [BGT-226 FREE BASE] had a half-life in data set [12] of 6 h.
